Experimental data as given in patent US6440400B1, “Trimethylcylohexane derivatives and melanin-formation inhibitors and perfumeholding agents with the use of the same” (Takasago International Corporation, priority 1998, dated 2002).

How the values were obtained:
B-16 melanoma cells = assay: Melanin production inhibiting effect on chromatophore (visual whiteness of cell pellets); format: cell-based; set-up: key: −: Equal to solvent control (black); +: Slightly different from solvent control (dark gray); ++: Markedly different from solvent control (pale gray); +++: No coloring of cells (white); settings: 3 days culture with sample
Protocol: A plastic culture flask (25 cm^2) was inoculated with 8×10^4 B-16 melanoma cells, which were incubated in a DMEN medium (Nippon Suisan Kaisha, Ltd.) containing 10% serum in the presence of 5% CO2 at 37° C. After 3 days, a test sample diluted with EtOH was added to the medium at a concentration of 0.4, 0.8, 1.6, 3.1 and 6.2 ppm and the culture was continued for further 3 days.
After completion of the culture to remove the culture followed by washing with a phosphate buffer (hereinafter referred to as PBS), the cells were removed from the flask using a medium containing trypsin and EDTA (ethylenediamine tetraacetic acid) and the cells were recovered from the cell suspension by centrifugation.
The cells thus obtained were washed once with PBS and then the pellets were evaluated visually for their whiteness.
Similarly to Example 16, the melanin production inhibiting effects of arbutin, tetrahydroionol, β-ionone, dihydro-β-ionone and the novel compounds of the invention (1′i, 1″i, 1^4′i) on a chromatophore were determined.

[1] = Patch test of 2% lanolin paste on upper arm of panelists; format: in vivo, human; settings: 2% by weight in lanolin paste, 24 h patch on upper arm, 30 panelists, observed at removal and 24 h later

| SMILES | whiteness of cell pellets, evaluated visually (B-16 melanoma cells; 1.6 ppm) | whiteness of cell pellets, evaluated visually (B-16 melanoma cells; 3.1 ppm) | whiteness of cell pellets, evaluated visually (B-16 melanoma cells; 6.2 ppm) | whiteness of cell pellets, evaluated visually (B-16 melanoma cells; 0.4 ppm) | whiteness of cell pellets, evaluated visually (B-16 melanoma cells; 0.8 ppm) | Number of panelists exhibiting abnormality [1] | Number ot panelists exhibiting no abnormality [1] |
| --- | --- | --- | --- | --- | --- | --- | --- |
| CCC(O)CCC1C(C)CCCC1(C)C (stereo not drawn) [1^4′b] | + | ++ | +++ |  |  |  |  |
| CCCC(O)CCC1C(C)CCCC1(C)C (stereo not drawn) [1^4′c] | + | ++ | +++ |  |  |  |  |
| CC(C)C(O)CCC1C(C)CCCC1(C)C (stereo not drawn) [1^4′e] | + | ++ | +++ |  |  |  |  |
| CC(C)CC(O)CCC1C(C)CCCC1(C)C (stereo not drawn) [1^4′g] | ++ | +++ | +++ |  |  |  |  |
| CCC(=O)C=CC1C(C)CCCC1(C)C (stereo not drawn) [1′b] | + | ++ | +++ |  |  |  |  |
| CCCC(=O)C=CC1C(C)CCCC1(C)C (stereo not drawn) [1′c] | + | ++ | +++ |  |  |  |  |
| CC(C)CC(=O)C=CC1C(C)CCCC1(C)C (stereo not drawn) [1′g] | + | ++ | +++ |  |  |  |  |
| CC1CCCC(C)(C)C1C=CC(=O)C(C)(C)C (stereo not drawn) [1′h] | + | ++ | +++ |  |  |  |  |
| CCCCCC(=O)C(C)=CC1C(C)CCCC1(C)C (stereo not drawn) [1′x, 1-(2′,2′,6′-Trimethylcyclohexan-1′-yl)-2-methyloctan-1-en-3-one] | + | ++ | +++ |  |  |  |  |
| CCC(O)C=CC1C(C)CCCC1(C)C (stereo not drawn) [1″b] | + | ++ | +++ |  |  |  |  |
| CCCC(O)C=CC1C(C)CCCC1(C)C (stereo not drawn) [1″c] | ++ | +++ | +++ |  |  |  |  |
| CC(C)CC(O)C=CC1C(C)CCCC1(C)C (stereo not drawn) [1″g] | +++ | +++ | +++ |  |  |  |  |
| CCC(O)C(C)=CC1C(C)CCCC1(C)C (stereo not drawn) [1″u] | + | ++ | +++ |  |  |  |  |
| OC[C@H]1O[C@@H](Oc2ccc(O)cc2)[C@H](O)[C@@H](O)[C@@H]1O [ARBUTIN, arbutin, reference compound] | − | − | + | − | − |  |  |
| CCCCCC(O)CCC1C(C)CCCC1(C)C (stereo not drawn) [Compound 1^4′i, 1-(2′,2′,6′-Trimethylcyclohexan-1′-yl)-octan-3-ol] | ++ | +++ | +++ | − | − |  |  |
| CCCCCCCC(O)CCC1C(C)CCCC1(C)C (stereo not drawn) [Compound 1^4′m, 1-(2′,2′,6′-Trimethylcyclohexan-1′-yl)-decan-3-ol] | + | + | + |  |  |  |  |
| CCCCCC(=O)C=CC1C(C)CCCC1(C)C (stereo not drawn) [Compound 1′i, 1-(2′,2′,6′-Trimethylcyclohexan-1′-yl)octan-1-en-3-one] | +++ | +++ | +++ | − | + | 0 | 30 |
| CC(C)CCCC(=O)C=CC1C(C)CCCC1(C)C (stereo not drawn) [Compound 1′k, 1-(2′,2′,6′-Trimethylcyclohexan-1′-yl)-7-methyloctan-1-en-3-one] | ++ | +++ | +++ |  |  |  |  |
| CC(C)=CCCC(=O)C=CC1C(C)CCCC1(C)C (stereo not drawn) [Compound 1′l, 1-(2′,2′,6′-Trimethylcyclohexan-1′-yl)-7-methyloctan-1,6-dien-3-one] | + | +++ | +++ |  |  |  |  |
| CCCCCCCC(=O)C=CC1C(C)CCCC1(C)C (stereo not drawn) [Compound 1′m, 1-(2′,2′,6′-Trimethylcyclohexan-1′-yl)-decan-1-en-3-one] | + | + | +++ |  |  |  |  |
| CCCCCC(O)C=CC1C(C)CCCC1(C)C (stereo not drawn) [Compound 1″i, 1-(2′,2′,6′-trimethylcyclohexan-1′-yl)octan-1-en-3-ol] | +++ | +++ | +++ | − | + | 0 | 30 |
| CC(C)CCCC(O)C=CC1C(C)CCCC1(C)C (stereo not drawn) [Compound 1″k, 1-(2′,2′,6′-Trimethylcyclohexan-1′-yl)-7-methyloctan-1-en-3-ol] | +++ | +++ | +++ |  |  |  |  |
| CC(C)=CCCC(O)C=CC1C(C)CCCC1(C)C (stereo not drawn) [Compound 1″l, 1-(2′,2′,6′-Trimethylcyclohexan-1′-yl)-7-methyloctan-1,6-dien-3-ol] | +++ | +++ | +++ |  |  |  |  |
| CCCCCCCC(O)C=CC1C(C)CCCC1(C)C (stereo not drawn) [Compound 1″m, 1-(2′,2′,6′-Trimethylcyclohexan-1′-yl)-decan-1-en-3-ol] | + | + | +++ |  |  |  |  |
| CCCCCC(O)C(C)=CC1C(C)CCCC1(C)C (stereo not drawn) [Compound 1″x, 1-(2′,2′,6′-Trimethylcyclohexan-1′-yl)-2-methyloctan-1-en-3-ol] | + | ++ | +++ |  |  |  |  |
| CC(=O)CCC1=C(C)CCCC1(C)C [Dihydro-β-ionone, dihydro-β-ionone, reference compound] | − | + | ++ | − | − |  |  |
| CC(O)CCC1C(C)CCCC1(C)C (stereo not drawn) [Tetrahydroionol, tetrahydroionol, reference compound] | − | + | ++ | − | − |  |  |
| CC(=O)/C=C/C1=C(C)CCCC1(C)C [β-Ionone, β-ionone, reference compound] | − | + | ++ | − | − |  |  |
